Measured values as given in patent US5693672A, “3,4,5-substituted benzoylguanidines, process for their preparation, their use as a medicament or diagnostic and medicament containing them” (priority 1992, dated 1997).
Structures can show the parent of a compound that is named as a salt.

How the values were obtained:
[1] = tested on: artificially induced ventricular fibrillation; conditions: rat hearts, isolated; cited from earlier work
[2] = molecular target: T1, Na^+ /H^+ exchanger of rabbit erythrocytes (Oryctolagus cuniculus, UniProt P23791); assay: Inhibition of the Na^+ /H^+ exchanger of rabbit erythrocytes (amiloride-sensitive Na^+ influx, flame photometry); assay type: cell-based, White New Zealand rabbits; conditions: pH 7.4, 37° C.
T1 construct: endogenous in cells; host or cells: erythrocytes in blood from the ear arteries of cholesterol-fed White New Zealand rabbits
Text: Inhibitors of the Na^+ /H^+ exchanger of rabbit erythrocytes:
White New Zealand rabbits (Ivanovas) received a standard diet containing 2% cholesterol for six weeks in order to activate Na^+ /H^+ exchange and thus to be able to determine the Na^+ influx into the erythrocytes via Na^+ /H^+ exchange by flame photometry. The blood was taken from the ear arteries and rendered incoagulable by 25 IU/ml of potassium heparin. A part of each sample was used for the duplicate determination of the hematocrit by centrifugation. Aliquots of 100 μl in each case were used to measure the Na^+ starting content of the erythrocytes.
In order to determine the amiloride-sensitive sodium influx, 100 μl of each blood sample were incubated at pH 7.4 and 37° C. in 5 ml in each case of a hyperosmolar salt/sucrose medium (mmol/1:140 NaCl, 3 KCl, 150 sucrose, 0.1 ouabain, 20 tris(hydroxymethyl)aminomethane). The erythrocytes were then washed three times with ice-cold MgCl2 /ouabain solution (mmol/1:112 MgCl2, 0.1 ouabain) and hemolized in 2.0 ml of distilled water. The intracellular sodium content was determined by flame photometry.
The Na^+ net influx was calculated from the difference between sodium starting values and the sodium content of the erythrocytes after incubation. The amiloride-inhibitable sodium influx resulted from the difference between the sodium content of the erythrocytes after incubation with and without 3×10^-4 mol/l amiloride. The process was also carried out in this manner in the case of the compounds according to the invention.

[3] = tested on: cardiac arrhythmias; conditions: in vivo; cited from earlier work

T1 sequence (P23791 whole entry): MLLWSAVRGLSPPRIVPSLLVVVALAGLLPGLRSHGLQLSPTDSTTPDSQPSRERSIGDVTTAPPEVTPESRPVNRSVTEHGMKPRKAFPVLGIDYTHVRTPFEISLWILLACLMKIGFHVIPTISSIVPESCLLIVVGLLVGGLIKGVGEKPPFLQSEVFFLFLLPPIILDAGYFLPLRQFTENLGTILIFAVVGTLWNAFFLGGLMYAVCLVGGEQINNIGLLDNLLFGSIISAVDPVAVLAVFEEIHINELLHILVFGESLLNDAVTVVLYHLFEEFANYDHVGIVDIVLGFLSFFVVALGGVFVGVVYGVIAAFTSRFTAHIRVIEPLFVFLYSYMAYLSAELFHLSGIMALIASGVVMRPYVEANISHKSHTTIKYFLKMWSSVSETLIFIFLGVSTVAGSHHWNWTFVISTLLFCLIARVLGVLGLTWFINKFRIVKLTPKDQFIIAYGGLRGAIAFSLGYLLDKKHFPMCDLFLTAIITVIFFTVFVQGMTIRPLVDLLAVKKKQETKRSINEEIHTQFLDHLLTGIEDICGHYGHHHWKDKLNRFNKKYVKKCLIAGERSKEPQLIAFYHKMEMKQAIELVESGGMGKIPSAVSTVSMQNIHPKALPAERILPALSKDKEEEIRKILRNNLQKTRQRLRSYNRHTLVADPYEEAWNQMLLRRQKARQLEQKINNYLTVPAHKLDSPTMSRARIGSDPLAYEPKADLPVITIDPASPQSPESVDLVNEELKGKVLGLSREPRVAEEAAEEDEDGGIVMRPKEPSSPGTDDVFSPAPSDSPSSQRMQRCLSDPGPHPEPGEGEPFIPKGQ

| IC50 [2] [nM] | SMILES | also measured |
| --- | --- | --- |
| – | CCN(c1nc(N)c(C(=O)N=C(N)N)nc1Cl)C(C)C [ethylisopropylamiloride, Ethylisopropylamiloride] | potency relative to amiloride in the ventricular fibrillation model [1]: even more potent than amiloride |
| 900 | CS(=O)(=O)c1cc(C(=O)N=C(N)N)ccc1CCc1ccccc1 [Example 9, 3-Methylsulfonyl-4-phenylethylbenzoylguanidine hydrochloride] | – |
| 500 | CS(=O)(=O)c1cc(C(=O)N=C(N)N)ccc1-c1ccc2ccccc2c1 [Example 2, 3-Methylsulfonyl-4-(2-naphthyl)benzoylguanidine hydrochloride] | – |
| > 1000 | CS(=O)(=O)c1cc(C(=O)N=C(N)N)ccc1-c1ccccn1 [Example 6, 3-Methylsulfonyl-4-(2'-pyridyl)benzoylguanidine hydrochloride] | – |
| > 1000 | CS(=O)(=O)c1cc(C(=O)N=C(N)N)ccc1-c1cccc(-c2ccccc2)c1 [Example 3, 3-Methylsulfonyl-4-(3-biphenyl)benzoylguanidine hydrochloride] | – |
| 100 | CS(=O)(=O)c1cc(C(=O)N=C(N)N)ccc1C1CCCC1 [Example 10, 4-Cyclopentyl-3-methylsulfonylbenzoylguanidine hydrochloride] | – |
| 200 | CS(=O)(=O)c1cc(C(=O)N=C(N)N)ccc1C#Cc1ccccc1 [Example 7, 3-Methylsulfonyl-4-[(2'-phenyl)ethynyl]benzoylguanidine hydrochloride] | – |
| 3000 | CS(=O)(=O)c1cc(C(=O)N=C(N)N)cc(C2CCCC2)c1 [Example 13, 3-Cyclopentyl-5-methylsulfonylbenzoylguanidine hydrochloride] | – |
| – | NC(N)=NC(=O)c1nc(Cl)c(N)nc1N [amiloride] | suppression of artificially induced ventricular fibrillation [1]: suppressed completely; accompanying side effects [3]: hypotensive and saluretic action; antiarrhythmic effect [3]: only slightly pronounced |
| 1700 | CS(=O)(=O)c1cc(C(=O)N=C(N)N)ccc1C1CCCCC1 [Example 5, 4-Cyclohexyl-3-methylsulfonylbenzoylguanidine hydrochloride] | – |
